Measured values taken from ChEMBL document CHEMBL1743341, “Cytochrome p450 enzymes mechanism based inhibitors: common sub-structures and reactivity” (Curr Drug Metab, 2005).

Columns and labels:
Cytochrome P450 3A5 = Cytochrome P450 3A5 (Homo sapiens, UniProt P20815); test: Mechanism based inhibition of human cytochrome P450 3A5 measured by testosterone hydroxylation; assay type: ADME
Cytochrome P450 2E1 [1] = biological target: T1, Cytochrome P450 2E1 (Homo sapiens, UniProt P05181); test: (§1) Mechanism based inhibition of human cytochrome P450 2E1; assay type: ADME
T1 sequence (P05181 whole entry): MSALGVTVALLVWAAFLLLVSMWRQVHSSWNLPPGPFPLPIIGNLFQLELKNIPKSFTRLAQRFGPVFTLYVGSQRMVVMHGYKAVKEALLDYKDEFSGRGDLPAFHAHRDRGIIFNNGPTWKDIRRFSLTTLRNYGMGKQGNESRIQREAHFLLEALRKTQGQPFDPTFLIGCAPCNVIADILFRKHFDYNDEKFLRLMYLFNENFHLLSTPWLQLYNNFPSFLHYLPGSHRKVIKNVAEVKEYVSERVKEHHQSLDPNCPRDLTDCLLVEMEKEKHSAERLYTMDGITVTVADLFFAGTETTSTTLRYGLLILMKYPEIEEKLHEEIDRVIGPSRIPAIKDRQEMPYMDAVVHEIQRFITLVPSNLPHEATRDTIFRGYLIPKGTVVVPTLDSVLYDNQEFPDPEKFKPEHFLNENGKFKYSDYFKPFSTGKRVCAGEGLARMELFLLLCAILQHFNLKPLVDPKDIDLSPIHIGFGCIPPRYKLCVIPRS

Cytochrome P450 2E1 [2] = biological target: T1, Cytochrome P450 2E1; test: as §1; assay type: ADME; remark: listed apart in the source
CYP3A4 [3] = biological target: T2, CYP3A4 (Homo sapiens, UniProt P08684); test: (§2) Mechanism based inhibition of human cytochrome P450 3A4; assay type: ADME; settings: human
T2 sequence (P08684 whole entry): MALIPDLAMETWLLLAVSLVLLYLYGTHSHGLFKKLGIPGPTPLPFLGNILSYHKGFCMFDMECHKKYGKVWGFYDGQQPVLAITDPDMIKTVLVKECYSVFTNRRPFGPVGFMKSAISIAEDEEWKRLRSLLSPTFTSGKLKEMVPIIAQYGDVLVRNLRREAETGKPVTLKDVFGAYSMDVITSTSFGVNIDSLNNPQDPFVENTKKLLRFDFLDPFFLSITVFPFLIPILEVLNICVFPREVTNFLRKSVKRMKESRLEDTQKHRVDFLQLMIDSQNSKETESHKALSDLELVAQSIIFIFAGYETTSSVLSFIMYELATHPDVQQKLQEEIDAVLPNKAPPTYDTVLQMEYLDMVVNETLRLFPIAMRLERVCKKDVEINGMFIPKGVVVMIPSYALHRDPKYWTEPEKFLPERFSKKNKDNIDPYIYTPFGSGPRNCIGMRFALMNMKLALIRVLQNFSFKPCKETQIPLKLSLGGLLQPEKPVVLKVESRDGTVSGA

Cytochrome P450 3A4 [4] = biological target: T3, Cytochrome P450 3A4 (Homo sapiens, UniProt P08684); test: as §2; assay type: ADME
T3 sequence (P08684 whole entry): as above

Cytochrome P450 2B1 [5] = biological target: T4, Cytochrome P450 2B1 (Rattus norvegicus, UniProt P00176); test: Mechanism based inhibition of rat cytochrome P450 CYP2B1 partition ratio; assay type: ADME
T4 sequence (P00176 whole entry): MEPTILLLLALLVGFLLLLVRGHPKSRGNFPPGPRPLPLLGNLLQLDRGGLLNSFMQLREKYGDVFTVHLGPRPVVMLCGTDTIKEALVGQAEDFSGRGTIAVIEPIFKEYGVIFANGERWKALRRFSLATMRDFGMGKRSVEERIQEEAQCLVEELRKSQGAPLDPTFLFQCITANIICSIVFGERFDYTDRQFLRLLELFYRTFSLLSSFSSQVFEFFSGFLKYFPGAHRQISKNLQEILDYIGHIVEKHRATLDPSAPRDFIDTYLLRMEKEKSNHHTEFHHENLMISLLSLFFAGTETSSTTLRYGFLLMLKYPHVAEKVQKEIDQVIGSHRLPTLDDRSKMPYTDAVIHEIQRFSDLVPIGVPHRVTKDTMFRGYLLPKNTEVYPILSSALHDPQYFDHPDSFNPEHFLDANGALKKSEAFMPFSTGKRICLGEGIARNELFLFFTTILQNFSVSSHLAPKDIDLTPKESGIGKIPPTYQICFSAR

CYP2B1 = biological target: T5, CYP2B1 (Rattus norvegicus, UniProt P00176); test: (§3) Mechanism based inhibition of rat cytochrome P450 CYP2B1 measured by 7-EFC O-deethylation activity; assay type: ADME; settings: rat, probe 7-EFC (O-deethylation)
T5 sequence (P00176 whole entry): T4 sequence (P00176 whole entry)

Cytochrome P450 2B1 [6] = biological target: T4, Cytochrome P450 2B1; test: as §3; assay type: ADME
Cytochrome P450 3A4 [7] = biological target: T3, Cytochrome P450 3A4; test: Mechanism based inhibition of human cytochrome P450 3A4 measured by testosterone 6-beta hydroxylation; assay type: ADME
CYP3A4 [8] = biological target: T2, CYP3A4; test: (§4) Mechanism based inhibition of human cytochrome P450 3A4 measured by nifedipine oxidation, omeprazole 3-hydroxylation and omeprazole sulfoxydation; assay type: ADME; settings: human
Cytochrome P450 3A4 [9] = biological target: T3, Cytochrome P450 3A4; test: as §4; assay type: ADME
Cytochrome P450 2A6 = biological target: T6, Cytochrome P450 2A6 (Homo sapiens, UniProt P11509); test: Mechanism based inhibition of human cytochrome P450 2A6; assay type: ADME
T6 sequence (P11509 whole entry): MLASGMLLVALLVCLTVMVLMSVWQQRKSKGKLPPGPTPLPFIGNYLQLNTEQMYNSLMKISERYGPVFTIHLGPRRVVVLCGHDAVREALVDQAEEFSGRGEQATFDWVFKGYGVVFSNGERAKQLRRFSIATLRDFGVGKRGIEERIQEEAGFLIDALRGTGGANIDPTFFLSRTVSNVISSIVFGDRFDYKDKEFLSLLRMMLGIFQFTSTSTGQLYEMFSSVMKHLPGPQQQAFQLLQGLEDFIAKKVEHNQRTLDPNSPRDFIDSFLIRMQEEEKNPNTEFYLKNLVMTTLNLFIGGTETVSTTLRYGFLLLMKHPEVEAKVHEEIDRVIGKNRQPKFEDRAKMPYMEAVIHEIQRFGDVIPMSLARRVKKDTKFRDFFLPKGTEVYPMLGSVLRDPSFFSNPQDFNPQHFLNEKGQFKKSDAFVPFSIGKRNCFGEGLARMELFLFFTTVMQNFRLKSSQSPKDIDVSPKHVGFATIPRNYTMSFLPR

Cytochrome P450 3A4 [10] = biological target: T3, Cytochrome P450 3A4; test: Mechanism based inhibition of human cytochrome P450 3A4 measured by lovastatin 6'-beta hydroxylase activity; assay type: ADME
Cytochrome P450 3A4 [11] = biological target: T3, Cytochrome P450 3A4; test: Mechanism based inhibition of human cytochrome P450 3A4 measured in vivo; assay type: ADME, organism-based
Cytochrome P450 2A13 = Cytochrome P450 2A13 (Homo sapiens, UniProt Q16696); test: Mechanism based inhibition of human cytochrome P450 2A13 measured by coumarin 7-hydroxylation and testosterone 15-hydroxylation; assay type: ADME
Sequence of Cytochrome P450 2A13 (Q16696 whole entry): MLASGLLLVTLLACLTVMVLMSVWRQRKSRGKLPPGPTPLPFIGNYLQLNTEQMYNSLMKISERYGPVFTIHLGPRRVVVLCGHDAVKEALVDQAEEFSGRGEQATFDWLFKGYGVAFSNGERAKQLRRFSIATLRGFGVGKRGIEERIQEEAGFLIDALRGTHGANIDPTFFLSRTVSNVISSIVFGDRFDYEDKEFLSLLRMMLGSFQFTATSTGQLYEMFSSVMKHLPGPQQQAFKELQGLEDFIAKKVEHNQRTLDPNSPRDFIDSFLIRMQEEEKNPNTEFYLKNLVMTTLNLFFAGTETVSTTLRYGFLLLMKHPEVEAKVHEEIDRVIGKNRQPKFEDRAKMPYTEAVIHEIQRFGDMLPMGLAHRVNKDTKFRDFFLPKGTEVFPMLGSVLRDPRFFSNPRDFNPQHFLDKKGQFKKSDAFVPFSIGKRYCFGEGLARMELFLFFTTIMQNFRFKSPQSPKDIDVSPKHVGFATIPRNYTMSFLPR

Cytochrome P450 2D6 = Cytochrome P450 2D6 (Homo sapiens, UniProt P10635); test: (§5) Mechanism based inhibition of human cytochrome P450 2D6 measured by dextromethorphan O-demethylation; assay type: ADME
Sequence of Cytochrome P450 2D6 (P10635 whole entry): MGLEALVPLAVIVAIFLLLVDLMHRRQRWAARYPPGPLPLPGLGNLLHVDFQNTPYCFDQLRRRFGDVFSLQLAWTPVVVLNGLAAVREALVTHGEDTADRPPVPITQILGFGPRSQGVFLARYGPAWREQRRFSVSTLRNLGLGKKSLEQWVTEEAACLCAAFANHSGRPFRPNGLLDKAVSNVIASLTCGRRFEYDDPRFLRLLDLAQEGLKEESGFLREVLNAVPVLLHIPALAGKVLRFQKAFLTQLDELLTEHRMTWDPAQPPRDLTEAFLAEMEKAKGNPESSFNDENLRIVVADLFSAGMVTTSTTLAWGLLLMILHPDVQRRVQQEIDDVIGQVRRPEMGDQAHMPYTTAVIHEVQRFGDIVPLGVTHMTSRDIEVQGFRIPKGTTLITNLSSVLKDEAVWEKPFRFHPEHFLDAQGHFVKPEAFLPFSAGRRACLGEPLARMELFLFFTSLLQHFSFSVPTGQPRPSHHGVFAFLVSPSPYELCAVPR

CYP2D6 = CYP2D6 (Homo sapiens, UniProt P10635); test: as §5; assay type: ADME; settings: human, probe dextromethorphan
Sequence of CYP2D6 (P10635 whole entry): as above

Cytochrome P450 1A2 = biological target: T7, Cytochrome P450 1A2 (Homo sapiens, UniProt P05177); test: (§6) Mechanism based inhibition of human cytochrome P450 1A2 measured by 7-ethoxyresorufin O-deethylation (EROD)
T7 sequence (P05177 whole entry): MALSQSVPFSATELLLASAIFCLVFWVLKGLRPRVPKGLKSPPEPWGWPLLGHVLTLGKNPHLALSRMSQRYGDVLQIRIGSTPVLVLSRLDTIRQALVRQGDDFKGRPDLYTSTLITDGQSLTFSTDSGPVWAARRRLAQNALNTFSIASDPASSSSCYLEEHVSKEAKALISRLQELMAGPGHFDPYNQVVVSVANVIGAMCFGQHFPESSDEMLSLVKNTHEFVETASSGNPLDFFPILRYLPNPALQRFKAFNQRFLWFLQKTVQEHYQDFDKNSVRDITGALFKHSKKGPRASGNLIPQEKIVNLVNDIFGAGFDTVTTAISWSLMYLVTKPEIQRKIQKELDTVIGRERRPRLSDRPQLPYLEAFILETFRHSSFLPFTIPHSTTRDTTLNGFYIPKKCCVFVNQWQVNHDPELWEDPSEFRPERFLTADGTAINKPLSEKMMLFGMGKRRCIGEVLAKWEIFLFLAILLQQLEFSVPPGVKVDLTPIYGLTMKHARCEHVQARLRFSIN

CYP1A2 = biological target: T8, CYP1A2 (Homo sapiens, UniProt P05177); test: as §6; settings: human, probe 7-ethoxyresorufin (O-deethylation, EROD)
T8 sequence (P05177 whole entry): T7 sequence (P05177 whole entry)

Sequence of Cytochrome P450 3A5 (P20815 whole entry): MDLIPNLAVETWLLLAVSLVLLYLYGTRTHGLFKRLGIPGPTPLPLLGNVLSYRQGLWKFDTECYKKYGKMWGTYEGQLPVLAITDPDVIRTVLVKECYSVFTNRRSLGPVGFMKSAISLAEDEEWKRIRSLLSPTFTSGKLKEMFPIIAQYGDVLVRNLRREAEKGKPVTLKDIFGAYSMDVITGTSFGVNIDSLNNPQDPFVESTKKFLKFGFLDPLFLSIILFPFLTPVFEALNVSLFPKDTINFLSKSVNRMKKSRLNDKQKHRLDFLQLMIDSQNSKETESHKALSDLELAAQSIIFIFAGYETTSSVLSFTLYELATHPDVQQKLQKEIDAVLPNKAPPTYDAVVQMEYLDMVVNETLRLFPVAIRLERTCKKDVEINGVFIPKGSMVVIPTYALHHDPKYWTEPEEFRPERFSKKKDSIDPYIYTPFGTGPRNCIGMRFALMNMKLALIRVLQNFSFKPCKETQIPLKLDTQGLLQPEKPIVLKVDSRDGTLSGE

Cc1c(O)cccc1C(=O)N[C@@H](CSc1ccccc1)[C@H](O)CN1C[C@H]2CCCC[C@H]2C[C@H]1C(=O)NC(C)(C)C
Ki (Cytochrome P450 3A5): 0.57 µM

CCN(CC)C(=S)SSC(=S)N(CC)CC
mechanism based inhibition (Cytochrome P450 2E1 [1]): Cytochrome P450 mechanistic inhibitor: PMID 1664256
mechanism based inhibition (Cytochrome P450 2E1 [1]; human): Cytochrome P450 mechanistic inhibitor: PMID 10805064
mechanism based inhibition (Cytochrome P450 2E1 [2]): Cytochrome P450 mechanistic inhibitor: PMID 9695717

CCc1c2c(nc3ccc(O)cc13)-c1cc3c(c(=O)n1C2)COC(=O)[C@]3(O)CC [7-ETHYL-10-HYDROXYCAMPTOTHECIN]
kinact (CYP3A4 [3]): 0.00167 s⁻¹
Ki (Cytochrome P450 3A4 [4]): 26 µM

S=C=NCc1ccccc1 [BENZYL ISOTHIOCYANATE]
partition_ratio (Cytochrome P450 2B1 [5]): 9
kinact (CYP2B1): 0.011 s⁻¹
Ki (Cytochrome P450 2B1 [6]): 5.8 µM

C/C(=C\COc1c2ccoc2cc2oc(=O)ccc12)CCC(O)C(C)(C)O (centres undefined) [DIHYDROXYBERGAMOTTIN]
mechanism based inhibition (Cytochrome P450 3A4 [7]): Cytochrome P450 mechanistic inhibitor: PMID 10859150
kinact (CYP3A4 [8]): 0.001 s⁻¹
Ki (Cytochrome P450 3A4 [9]): 5.56 µM
kinact (CYP3A4 [3]): 0.00267 s⁻¹
Ki (Cytochrome P450 3A4 [4]): 59 µM

CCN(CC)C(=S)S [DITIOCARB]
mechanism based inhibition (Cytochrome P450 2E1 [2]): Cytochrome P450 mechanistic inhibitor: PMID 9695717
mechanism based inhibition (Cytochrome P450 2A6): Cytochrome P450 mechanistic inhibitor: PMID 9695717

CN1CCN(C(=O)N[C@@H](Cc2ccccc2)C(=O)N[C@H](/C=C/S(=O)(=O)c2ccccc2)CCc2ccccc2)CC1 [K-777]
mechanism based inhibition (Cytochrome P450 3A4 [10]): Cytochrome P450 mechanistic inhibitor: PMID 11038163

CN(C)c1ccc([C@H]2C[C@@]3(C)[C@@H](CC[C@@]3(O)/C=C\CO)[C@@H]3CCC4=CC(=O)CCC4=C32)cc1 [LILOPRISTONE]
mechanism based inhibition (Cytochrome P450 3A4 [11]): Cytochrome P450 mechanistic inhibitor: PMID 9697076

COc1c2occc2cc2ccc(=O)oc12 [METHOXSALEN]
mechanism based inhibition (Cytochrome P450 2A13): Cytochrome P450 mechanistic inhibitor: PMID 15579482

CCN(CC)CCNC(=O)c1cc(Cl)c(N)cc1OC [METOCLOPRAMIDE]
Ki (Cytochrome P450 2D6): 0.96 µM
kinact (CYP2D6): 0.000433 s⁻¹

Cc1c(-c2cnccn2)ssc1=S [OLTIPRAZ]
Ki (Cytochrome P450 1A2): 9 µM
kinact (CYP1A2): 0.00317 s⁻¹

CN(C)c1ccc([C@H]2C[C@]3(C)[C@@H](CC[C@]3(O)CCCO)[C@@H]3CCC4=CC(=O)CCC4=C32)cc1 [ONAPRISTONE]
mechanism based inhibition (Cytochrome P450 3A4 [11]): Cytochrome P450 mechanistic inhibitor: PMID 9697076
